What was measured:
[1] = tested on: wildtype Wnt signaling cascade; assay: HEK293 TOP assay (Super TopFlash luciferase reporter, Wnt-3a stimulated); type: cell-based; conditions: Homo sapiens, HEK293, 16 h, HEK293 TOP reporter cells, Wnt3a at EC50, 16 hours
Source text: 7.1 Measurement of the Inhibitory Activity of Selected Compounds on the Wildtype Wnt Signaling Cascade: HEK293 TOP/FOP Assay
In order to discover and characterize small molecules which inhibit the wildtype Wnt pathway, a cellular reporter assay was employed. The corresponding assay cell was generated by transfection of the mammalian cell line HEK293 (ATCC, #CRL-1573) with the Super TopFlash vector (Morin, Science 275, 1997, 1787-1790; Molenaar et al., Cell 86 (3), 1996, 391-399). The HEK293 cell line is cultivated at 37° C. and 5% CO2 in DMEM (Life Technologies, #41965-039), supplemented with 2 mM glutamine, 20 mM HEPES, 1.4 mM pyruvate, 0.15% Na-bicarbonate and 10% foetal bovine serum (GIBCO, #10270). Stable transfectants were generated by selection with 300 μg/ml Hygromycin.
(§1) In preparation of the assay, the two cell lines were plated 24 h before beginning the test at 10000 cells per well in a 384 micro titre plate (MTP) in 30 μl growth medium. […] The recombinant human Wnt-3a was thereby applied between 2500 and 5 ng/ml in two-fold dilution steps.
(§2) Selective inhibitory activity for small molecules on the wildtype Wnt pathway was determined after parallel incubation of both (TOP and FOP) HEK293 reporter cell lines with a compound dilution series from 50 μM to 15 nM in steps of 3.16-fold dilutions in CAFTY buffer (130 mM sodium chloride, 5 mM potassium chloride, 20 mM HEPES, 1 mM magnesium chloride, 5 mM sodium bicarbonate, pH 7.4) containing 2 mM Ca^2+ and 0.01% BSA.
(§3) The compounds were thereby serially prediluted in 100% DMSO and thereafter 50 fold into the CAFTY compound dilution buffer (described above).

[2] = tested on: HEK293 cells cotransfected with the FOP control vector; assay: HEK293 FOP assay (control reporter with non-functional TCF elements); type: cell-based; conditions: Homo sapiens, 16 hours
Experimental: In a parallel approach, HEK293 cells were cotransfected with the FOP control vector and pcDNA3. The FOP vector is identical to the TOP construct, but it contains instead of functional TCF elements a randomized, non-functional sequence. For this transfection a stable transfected cell line was generated as well, based on selection with Geneticin (1 mg/ml).
as §1, §2, §3

[3] = target: T1, TNKS2 (Homo sapiens, UniProt Q9H2K2); assay: TNKS2 Assay B (auto-parsylation, [3H]-NAD+ SPA); type: biochemical; conditions: 6 nM TNKS2, auto-parsylation, over night at room temperature
T1 construct: purchased BPS Bioscience, San Diego, USA 80572 (TNKS2 Histone Ribosylation Assay Kit)
T1 sequence (Q9H2K2 1-1166): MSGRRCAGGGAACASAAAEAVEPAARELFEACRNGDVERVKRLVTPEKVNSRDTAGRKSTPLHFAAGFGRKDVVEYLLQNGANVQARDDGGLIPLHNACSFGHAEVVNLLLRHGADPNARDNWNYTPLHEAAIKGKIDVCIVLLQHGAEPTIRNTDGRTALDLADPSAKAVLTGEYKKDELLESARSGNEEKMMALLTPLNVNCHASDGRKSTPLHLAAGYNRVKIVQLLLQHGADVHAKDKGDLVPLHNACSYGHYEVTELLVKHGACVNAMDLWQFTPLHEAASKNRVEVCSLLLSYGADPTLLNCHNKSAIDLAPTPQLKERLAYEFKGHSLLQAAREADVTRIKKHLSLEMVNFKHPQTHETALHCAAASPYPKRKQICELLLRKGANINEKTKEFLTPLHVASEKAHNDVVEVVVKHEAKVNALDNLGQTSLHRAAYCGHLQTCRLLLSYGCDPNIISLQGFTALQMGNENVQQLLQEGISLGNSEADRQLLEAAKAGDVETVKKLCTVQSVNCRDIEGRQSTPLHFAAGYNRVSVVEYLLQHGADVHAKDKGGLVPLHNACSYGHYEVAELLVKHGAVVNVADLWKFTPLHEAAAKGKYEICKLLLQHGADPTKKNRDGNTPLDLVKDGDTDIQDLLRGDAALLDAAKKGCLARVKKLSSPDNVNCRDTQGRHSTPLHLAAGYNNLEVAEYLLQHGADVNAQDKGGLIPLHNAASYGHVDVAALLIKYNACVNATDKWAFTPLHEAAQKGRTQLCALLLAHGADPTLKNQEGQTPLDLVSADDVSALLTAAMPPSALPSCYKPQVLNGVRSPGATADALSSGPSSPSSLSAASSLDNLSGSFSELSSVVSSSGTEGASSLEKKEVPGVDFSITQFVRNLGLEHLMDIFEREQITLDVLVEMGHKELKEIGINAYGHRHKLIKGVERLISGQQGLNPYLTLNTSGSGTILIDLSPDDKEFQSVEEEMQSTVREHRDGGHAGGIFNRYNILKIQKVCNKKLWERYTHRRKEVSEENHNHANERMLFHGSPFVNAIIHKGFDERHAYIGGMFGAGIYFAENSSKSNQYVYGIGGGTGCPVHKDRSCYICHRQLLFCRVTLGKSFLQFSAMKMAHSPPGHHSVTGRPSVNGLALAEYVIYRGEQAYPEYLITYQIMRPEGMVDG
Experimental: The potency of selected compounds according to the invention was assessed applying a modified in vitro inhibition assay. Here, the TNKS2 catalyzed NAD^+-dependent ribosylation of the enzyme itself (auto-parsylation) was detected using [^3H]-NAD^+ as substrate and applying the scintillation proximity assay (SPA) method to detect tritium-labeled, parsylated TNKS2. The intensity of the readout signal is proportional to the incorporated [^3H]-NAD^+. Inhibition of TNKS2 leads to a decreased incorporation of [^3H]-NAD^+ and consequently to a lower readout signal intensity. The concentration of a test compound which inhibits the enzyme activity by 50% (corresponds to half of the normed readout signal intensity) is reported as IC50.
Protocol Auto-Parsylation Assay
The assay was conducted in a 96 well MTP format with the identical TNKS2 enzyme sample and NAD^+ sample as in the histone ribosylation assay with the following modifications: TNKS2 enzyme sample was diluted with a modified assay buffer (50 mM MES pH 7.0, 1 mM DTT, 0.01% Triton X-100) to a final concentration of 6 nM TNKS2 and 10×NAD^+ solution was diluted with the modified assay buffer (s. above) to a final 0.445×NAD^+ solution doped with 100 Bq/μl [^3H]-NAD^+[Catalog #NET443H050UC, Perkin Elmer, Waltham, Mass., USA]. Substrate solution (10 μl) was incubated with different test compound concentrations (2.5 μl in 10% DMSO in modified assay buffer) or control (2.5 μl 10% DMSO in modified assay buffer only) and enzyme (10 μl) over night at room temperature. Incorporated tritium was measured after addition of 50 ul SPA beads (1 mg/ml) [Catalog #RPNQ0095 20 mg/ml, Perkin Elmer, Waltham, Mass., USA; diluted 1:10 with Dulbecco's phosphate buffered saline, PBS Catalog #D8537, Sigma-Aldrich, Steinheim, Germany] and detection of the photon emission with a beta count plate reader [Wallac MicroBeta®, Perkin Elmer, Waltham, Mass., USA].

| IC50 [1] [nM] | IC50 [3] [nM] | Compound | IC50 [2] [nM] |
| --- | --- | --- | --- |
| 5 | 11 | O=C(N[C@H]1CC[C@@]2(CCN(c3ccc(F)cc3Cl)C2=O)CC1)c1cnn2ccc(C(F)F)nc12 [Example 330, N-[(trans)-2-(2-chloro-4-fluorophenyl)-1-oxo-2-azaspiro[4.5]dec-8-yl]-5-(difluoromethyl)pyrazolo[1,5-a]pyrimidine-3-carboxamide] | 30000 |
| 46 | 150 | Cc1cc(N2CC[C@]3(CC[C@@H](NC(=O)c4[nH]cnc4C(=O)N4CCN(C)CC4)CC3)C2=O)c(Cl)cc1F [Example 294, N-[(trans)-2-(2-chloro-4-fluoro-5-methylphenyl)-1-oxo-2-azaspiro[4.5]dec-8-yl]-4-[(4-methylpiperazin-1-yl)carbonyl]-1H-imidazole-5-carboxamide] | ≥ 50000 |
| 15 | 270 | Cc1cc(N2CCC[C@]3(CC[C@@H](NC(=O)c4[nH]cnc4C(=O)NC(C)C)CC3)C2=O)c(Cl)cc1F [Example 310, N^5-[(trans)-2-(2-chloro-4-fluoro-5-methylphenyl)-1-oxo-2-azaspiro[5.5]undec-9-yl]-N^4-(propan-2-yl)-1H-imidazole-4,5-dicarboxamide] | 13000 |
| 7.2 | 27 | COc1ccc(Cl)c(N2CC[C@]3(CC[C@@H](NC(=O)c4cnn5cccnc45)CC3)C2=O)c1 [Example 353, N-[(trans)-2-(2-chloro-5-methoxyphenyl)-1-oxo-2-azaspiro[4.5]dec-8-yl]pyrazolo[1,5-a]pyrimidine-3-carboxamide] | 28000 |
| 0.15 | 5.9 | O=C(N[C@H]1CC[C@@]2(CCN(c3cnccc3Cl)C2=O)CC1)c1cnn2cccnc12 [Example 246, N-[(trans)-2-(4-chloropyridin-3-yl)-1-oxo-2-azaspiro[4.5]dec-8-yl]pyrazolo[1,5-a]pyrimidine-3-carboxamide] | ≥ 50000 |
| 1.5 | 11 | O=C(N[C@H]1CC[C@@]2(CCN(c3c(F)cc(F)cc3Cl)C2=O)CC1)c1cnc2cccnn12 [Example 243, N-[(trans)-2-(2-chloro-4,6-difluorophenyl)-1-oxo-2-azaspiro[4.5]dec-8-yl]imidazo[1,2-b]pyridazine-3-carboxamide] | ≥ 50000 |
| 6 | 52 | CC(C)NC(=O)c1nc[nH]c1C(=O)N[C@H]1CC[C@@]2(CCCN(c3cc(F)c(F)cc3Cl)C2=O)CC1 [Example 321, N^5-[(trans)-2-(2-chloro-4,5-difluorophenyl)-1-oxo-2-azaspiro[5.5]undec-9-yl]-N^4-(propan-2-yl)-1H-imidazole-4,5-dicarboxamide] | 24000 |
| 3 | 19 | O=C(NC1CC1)c1nc[nH]c1C(=O)N[C@H]1CC[C@@]2(CCCN(c3cc(F)c(F)cc3Cl)C2=O)CC1 [Example 324, N^5-[(trans)-2-(2-chloro-4,5-difluorophenyl)-1-oxo-2-azaspiro[5.5]undec-9-yl]-N^4-cyclopropyl-1H-imidazole-4,5-dicarboxamide] | ≥ 500 |
| 34 | 150 | CCN(c1ccccc1Cl)C(=O)[C@H]1CC[C@H](NC(=O)c2[nH]cnc2C(=O)NC)CC1 [Example 158, N^5-{trans-4-[(2-chlorophenyl)(ethyl)carbamoyl]cyclohexyl}-N^4-methyl-1H-imidazole-4,5-dicarboxamide] | ≥ 50000 |
| 230 | 29 | O=C(N[C@H]1CC[C@@]2(CCN(c3ccc(F)cc3Cl)C2=O)CC1)c1cnn2c(O)ccnc12 [Example 235, N-[(trans)-2-(2-chloro-4-fluorophenyl)-1-oxo-2-azaspiro[4.5]dec-8-yl]-7-hydroxypyrazolo[1,5-a]pyrimidine-3-carboxamide] | ≥ 500 |

Reference: patent US20180148418A1, “AMIDO-SUBSTITUTED CYCLOHEXANE DERIVATIVES” (Bayer Pharma Aktiengesellschaft, priority 2015, published 2018)
